This is an account of results in patent US8088819B2, “Derivatives of substituted 3-phenyl-1-(phenylthienyl)propan-1-ones and of 3-phenyl-1-(phenylfuranyl) propan-1-ones, preparation and use” (priority 2006, dated 2012).

The structures appear in SMILES notation.

Assay [1] has as its system target genes of the PPARs. Put plainly: Expression of target genes of the PPARs in hepatic and muscle tissues of the db/db mouse, quantitative RT-PCR. The assay is classed as in vivo. The note with it: db/db mice; 50 mpk; 28 days. The protocol:
The efficacy of the compound according to the invention is also evaluated by measuring, in the hepatic and muscle tissues, the expression of genes involved in carbohydrate and lipid metabolism, and the dissipation of energy. The levels of expression of each gene are normalized relative to the level of expression of the reference genes 36B4 in the liver and 18S in the skeletal muscle. The induction factor, i.e. the ratio of the relative signal (induced by the compound according to the invention) to the mean of the relative values of the control group, is then calculated. The higher this factor, the greater the gene expression activating character of the compound. The final result is represented as the mean of the induction values in each experimental group.
Female db/db mice were kept under a cycle of light and darkness of 12/12 hours at a constant temperature of 20±3° C. After acclimation for one week, the mice were weighed and put in groups of 8 animals selected so that the distribution of their body weight and of their plasma lipid levels, determined for the first time before the experiment, are uniform. The test compounds were suspended in carboxymethylcellulose (Sigma C4888) and administered by intragastric force feeding, at a rate of once per day for 28 days at the chosen dose. The animals had free access to water and to food (standard diet). The food intake and the weight gain are recorded throughout the experiment. At the end of the experiment, the animals were anesthetized after fasting for 4 hours, a blood sample was taken using anticoagulant (EDTA), then the mice were weighed and euthanased. The plasma was separated by centrifugation at 3000 rev/min for 20 minutes, and the samples were stored at +4° C.
Samples of hepatic and muscle tissues were taken and frozen immediately in liquid nitrogen and then stored at −80° C. for later analyses. […]
1 μg of total RNA (quantified by UV spectrophotometry) was then reverse-transcribed to complementary DNA by reaction for 1 hour at 37° C. in a total volume of 30 μl containing buffer 1× (Invitrogen), 1.5 mM of DTT, 0.18 mM of dNTPs (Promega), 200 ng of pdN6 (Amersham), 30 U of RNase inhibitor (Promega) and 1 μl of MMLV-RT (Invitrogen).
The quantitative PCR experiments were carried out using the MyiQ Single-Color Real-Time PCR Detection System (Biorad, Marnes-la-Coquette, France) and were performed using the iQ SYBR Green Supermix kit following the supplier's recommendations, in 96-well plates, on 5 μL of diluted reverse-transcription reaction mixture with a hybridization temperature of 60° C. […]
The amount of fluorescence emitted is directly proportional to the amount of complementary DNA present at the start of the reaction and amplified during PCR. […] The relative expression levels of each target are thus determined using the efficacy curves obtained with the points in the range.
The levels of expression of the genes of interest were then normalized, […] relative to the level of expression of the reference gene 36B4 (whose specific primers are: sense primer: 5′-[…]-3′ (SEQ ID No. 19) and antisense primer: 5′-[…]-3′ (SEQ ID No. 20)), and in the muscle tissue relative to the level of expression of the reference gene 18S (whose specific primers are: sense primer: 5′-[…]-3′ (SEQ ID No. 21) and antisense primer: 5′-[…]-3′ (SEQ ID No. 22)). The induction factor was calculated for each sample. […]

The target of assay [2] is T1, hPPARgamma (Homo sapiens, UniProt P37231).
T1 construct: expressed in transfected cells; host or cells: COS-7 (monkey kidney fibroblasts)
T1 sequence (P37231 238-503 limits assumed): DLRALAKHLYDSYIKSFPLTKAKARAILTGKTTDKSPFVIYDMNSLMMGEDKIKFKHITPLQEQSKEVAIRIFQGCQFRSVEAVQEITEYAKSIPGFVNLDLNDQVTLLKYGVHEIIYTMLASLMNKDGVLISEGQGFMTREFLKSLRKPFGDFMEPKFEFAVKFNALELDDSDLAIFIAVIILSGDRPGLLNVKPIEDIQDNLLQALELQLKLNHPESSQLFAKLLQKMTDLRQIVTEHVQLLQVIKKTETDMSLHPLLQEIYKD
Put plainly: PPAR activation: Gal4-hPPARγ chimera luciferase transactivation in COS-7 cells, Method 2. The assay is classed as cell-based. The settings on record: COS-7, 24 h, Method 2. A digest of the protocol:
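Transactivation by a Gal4 DNA-binding domain–hPPARγ ligand-binding domain chimera with a Gal4(RE)-luciferase reporter, transfected into COS-7 cells (plasmid ratio 1/10).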

Consider `CC(C)(Oc1ccc(CCC(=O)c2ccc(-c3ccc(C(F)(F)F)cc3)s2)c(Cl)c1Cl)C(=O)O` [Compound 2, 2-(2,3-dichloro-4-(3-oxo-3-(5-(4-(trifluoromethyl)phenyl)thien-2-yl)propyl)phenoxy)-2-methylpropanoic acid], for which, in assay [1], the “expression of the gene coding for ACOX1 in the liver” value is given as “significant increase”, the “expression of the gene coding for CPT1b in the skeletal muscle” value was “significant increase”, the “expression of the gene coding for PDK4 in the liver” value is recorded as “significant increase” and the “expression of the gene coding for PDK4 in the skeletal muscle” value was “significant increase”. Further, the “expression of the gene coding for UCP2 in the skeletal muscle” value in assay [1] is “significant increase”.

A word on the EC50: it is the concentration at which the effect is half-maximal. For `CC(C)(Oc1ccc(CCC(OCc2ccccc2)c2ccc(-c3ccc(C(F)(F)F)cc3)s2)c(Cl)c1Cl)C(=O)O` (stereo not shown) [Compound 7, 2-(4-(3-(benzyloxy)-3-(5-(4-(trifluoromethyl)phenyl)thien-2-yl)propyl)-2,3-dichlorophenoxy)-2-methylpropanoic acid], the Emax in assay [2] (maximum percentage response relative to the reference rosiglitazone, read-out: hPPARgamma % max) turned out to be 40%. In addition, the EC50 in assay [2] (1% Ultroser, read-out: hPPARgamma EC50) came to 1700 nM.
